The numbers were not newly measured in US8545882B2, “Control release formulation containing a hydrophobic material as the sustained release agent” (Nostrum Pharmaceuticals, Inc., priority 2001, dated 2013), which cites them from elsewhere.

For data set [1] the following is noted: 40% by weight glycerol palmitostearate, wet granulation, after 20 minutes.
For data set [2] the following is noted: granules 200-315 microns, any of three polymers at 10 or 20% by weight.
The conditions of data set [3]: water.

Molecules are shown by their SMILES. Where two headings read alike, the source gives them in different places. Some results are limits rather than exact numbers.

`O=C([O-])c1ccccc1O.[Na+]` [sodium salicylate]: the “drug released in water” value in data set [1] is 50%.
On to `CC(C)Cc1ccc(C(C)C(=O)O)cc1` (stereo not shown) [ibuprofen], for which, in data set [2], the “time in which the drug was released completely” value was ≤ 30 min.
For `Cn1c(=O)c2[nH]cnc2n(C)c1=O` [theophylline], the theophylline released in data set [3] (2% (w/w) wax coating, within one hour) is recorded as 85%; in data set [3] (6% wax coating, in 5 minutes), 35%; in data set [3] (6% wax coating, within the first hour) it was 55%; in data set [3] (10% (w/w) wax coating, in 5 minutes) it was 28%; in data set [3] (10% (w/w) wax coating, within the first hour) it was 38%.
